Experiments:
[1] = biological target: Mitogen-activated protein kinase 12 (Homo sapiens) (UniProt P53778); test: SAPK3(h) Kinase panel; details: Compound concentration 1.0 uM, tested as the 2H-labelled form
[2] = biological target: 5-hydroxytryptamine receptor 7 (Homo sapiens) (UniProt P34969); details: Compound concentration 10.0 uM, tested as the 2H-labelled form
[3] = biological target: Calcium/calmodulin-dependent protein kinase type 1G (Homo sapiens) (UniProt Q96NX5); test: CaMKIgamma(h) Kinase panel; details: Compound concentration 1.0 uM, tested as the 2H-labelled form
[4] = biological target: 5'-AMP-activated protein kinase catalytic subunit alpha-2 (Homo sapiens, UniProt P54646); test: AMPKalpha2(h) Kinase panel; details: Compound concentration 1.0 uM, tested as the 2H-labelled form
[5] = biological target: Wee1-like protein kinase 2 (Homo sapiens) (UniProt P0C1S8); test: Wee1B(h) Kinase panel; details: Compound concentration 1.0 uM, tested as the 2H-labelled form
[6] = biological target: Cyclin-dependent kinase 13 (Homo sapiens) (UniProt Q14004); test: CDK13/cyclinK(h) Kinase panel; details: Compound concentration 1.0 uM, tested as the 2H-labelled form
[7] = biological target: Proto-oncogene tyrosine-protein kinase receptor Ret (Homo sapiens) (UniProt P07949); test: Ret(h) Kinase panel; details: Compound concentration 1.0 uM, tested as the 2H-labelled form
[8] = biological target: Calcium/calmodulin-dependent protein kinase type 1D (Homo sapiens) (UniProt Q8IU85); test: CaMKIdelta(h) Kinase panel; details: Compound concentration 1.0 uM, tested as the 2H-labelled form
[9] = biological target: Death-associated protein kinase 2 (Homo sapiens) (UniProt Q9UIK4); test: DAPK2(h) Kinase panel; details: Compound concentration 1.0 uM, tested as the 2H-labelled form
[10] = biological target: Tyrosine-protein kinase Fes/Fps (Homo sapiens) (UniProt P07332); test: Fes(h) Kinase panel; details: Compound concentration 1.0 uM, tested as the 2H-labelled form
[11] = biological target: Phosphatidylinositol 4-phosphate 5-kinase type-1 alpha (Homo sapiens) (UniProt Q99755); test: PIP5K1a(h) Kinase panel; details: Compound concentration 1.0 uM, tested as the 2H-labelled form
[12] = biological target: Casein kinase I isoform epsilon (Homo sapiens, UniProt P49674); test: CK1epsilon(h) Kinase panel; details: Compound concentration 1.0 uM, tested as the 2H-labelled form
[13] = biological target: Fibroblast growth factor receptor 1 (Homo sapiens) (UniProt P11362); test: FGFR1(h) Kinase panel; details: Compound concentration 1.0 uM, tested as the 2H-labelled form
[14] = biological target: Serine/threonine-protein kinase SIK1 (Homo sapiens) (UniProt P57059); test: SIK(h) Kinase panel; details: Compound concentration 1.0 uM, tested as the 2H-labelled form
[15] = biological target: Bone morphogenetic protein receptor type-1B (Homo sapiens) (UniProt O00238); test: ALK6(h) Kinase panel; details: Compound concentration 1.0 uM, tested as the 2H-labelled form
[16] = biological target: Serine/threonine-protein kinase SBK1 (Homo sapiens) (UniProt Q52WX2); test: SBK1(h) Kinase panel; details: Compound concentration 1.0 uM, tested as the 2H-labelled form
[17] = biological target: Mast/stem cell growth factor receptor Kit (Homo sapiens) (UniProt P10721); test: cKit(h) Kinase panel; details: Compound concentration 1.0 uM, tested as the 2H-labelled form
[18] = biological target: Serine/threonine-protein kinase MAK (Homo sapiens) (UniProt P20794); test: MAK(h) Kinase panel; details: Compound concentration 1.0 uM, tested as the 2H-labelled form
[19] = biological target: 5-hydroxytryptamine receptor 6 (Homo sapiens) (UniProt P50406); details: Compound concentration 10.0 uM, tested as the 2H-labelled form
[20] = biological target: Cytoplasmic tyrosine-protein kinase BMX (Homo sapiens) (UniProt P51813); test: Bmx(h) Kinase panel; details: Compound concentration 1.0 uM, tested as the 2H-labelled form
[21] = biological target: MAP/microtubule affinity-regulating kinase 4 (Homo sapiens) (UniProt Q96L34); test: MARK4(h) Kinase panel; details: Compound concentration 1.0 uM, tested as the 2H-labelled form
[22] = biological target: Cyclin-dependent kinase 5 (Homo sapiens) (UniProt Q00535); test: CDK5/p35(h) Kinase panel; details: Compound concentration 1.0 uM, tested as the 2H-labelled form
[23] = biological target: Serine/threonine-protein kinase SIK2 (Homo sapiens) (UniProt Q9H0K1); test: SIK2(h) Kinase panel; details: Compound concentration 1.0 uM, tested as the 2H-labelled form
[24] = biological target: Mitogen-activated protein kinase kinase kinase 9 (Homo sapiens) (UniProt P80192); test: MLK1(h) Kinase panel; details: Compound concentration 1.0 uM, tested as the 2H-labelled form
[25] = biological target: Bone morphogenetic protein receptor type-2 (Homo sapiens) (UniProt Q13873); test: BMPR2(h) Kinase panel; details: Compound concentration 1.0 uM, tested as the 2H-labelled form
[26] = biological target: Interleukin-1 receptor-associated kinase 4 (Homo sapiens) (UniProt Q9NWZ3); test: IRAK4(h) Kinase panel; details: Compound concentration 1.0 uM, tested as the 2H-labelled form
[27] = biological target: D(3) dopamine receptor (Homo sapiens, UniProt P35462); details: Compound concentration 10.0 uM, tested as the 2H-labelled form
[28] = biological target: Sodium-dependent dopamine transporter (Homo sapiens, UniProt Q01959); details: Compound concentration 10.0 uM, tested as the 2H-labelled form
[29] = biological target: Dual specificity protein kinase CLK2 (Homo sapiens) (UniProt P49760); test: CLK2(h) Kinase panel; details: Compound concentration 1.0 uM, tested as the 2H-labelled form
[30] = biological target: Tyrosine-protein kinase Srms (Homo sapiens) (UniProt Q9H3Y6); test: SRMS(h) Kinase panel; details: Compound concentration 1.0 uM, tested as the 2H-labelled form
[31] = biological target: Cyclin-dependent kinase 16 (Homo sapiens) (UniProt Q00536); test: CDK16/cyclinY(h) Kinase panel; details: Compound concentration 1.0 uM, tested as the 2H-labelled form
[32] = biological target: Phosphatidylinositol 4,5-bisphosphate 3-kinase catalytic subunit beta isoform (Homo sapiens) (UniProt P42338); test: PI3 Kinase (p110b/p85a)(h) Kinase panel; details: Compound concentration 1.0 uM, tested as the 2H-labelled form
[33] = species: Rattus norvegicus; details: Compound concentration 10.0 uM, tested as the 2H-labelled form
[34] = biological target: Serine/threonine-protein kinase N1 (Homo sapiens) (UniProt Q16512); test: PRK1(h) Kinase panel; details: Compound concentration 1.0 uM, tested as the 2H-labelled form
[35] = biological target: RAF proto-oncogene serine/threonine-protein kinase (Homo sapiens) (UniProt P04049); test: c-RAF(h) Kinase panel; details: Compound concentration 1.0 uM, tested as the 2H-labelled form
[36] = biological target: Beta-1 adrenergic receptor (Homo sapiens) (UniProt P08588); details: Compound concentration 10.0 uM, tested as the 2H-labelled form
[37] = biological target: Alpha-2A adrenergic receptor (Homo sapiens) (UniProt P08913); details: Compound concentration 10.0 uM, tested as the 2H-labelled form
[38] = biological target: Serine/threonine-protein kinase 3 (Homo sapiens) (UniProt Q13188); test: MST2(h) Kinase panel; details: Compound concentration 1.0 uM, tested as the 2H-labelled form
[39] = biological target: D(1A) dopamine receptor (Homo sapiens) (UniProt P21728); details: Compound concentration 10.0 uM, tested as the 2H-labelled form
[40] = biological target: Casein kinase I isoform gamma-3 (Homo sapiens) (UniProt Q9Y6M4); test: CK1gamma3(h) Kinase panel; details: Compound concentration 1.0 uM, tested as the 2H-labelled form
[41] = biological target: Receptor tyrosine-protein kinase erbB-2 (Homo sapiens) (UniProt P04626); test: ErbB2(h) Kinase panel; details: Compound concentration 1.0 uM, tested as the 2H-labelled form
[42] = biological target: Serine/threonine-protein kinase ULK1 (Homo sapiens) (UniProt O75385); test: ULK1(h) Kinase panel; details: Compound concentration 1.0 uM, tested as the 2H-labelled form
[43] = biological target: Glycogen synthase kinase-3 beta (Homo sapiens) (UniProt P49841); test: GSK3β(h) Kinase panel; details: Compound concentration 1.0 uM, tested as the 2H-labelled form
[44] = biological target: Serine/threonine-protein kinase WNK4 (Homo sapiens) (UniProt Q96J92); test: WNK4(h) Kinase panel; details: Compound concentration 1.0 uM, tested as the 2H-labelled form
[45] = biological target: SRSF protein kinase 3 (Homo sapiens) (UniProt Q9UPE1); test: MSSK1(h) Kinase panel; details: Compound concentration 1.0 uM, tested as the 2H-labelled form
[46] = biological target: Cyclin-dependent kinase 3 (Homo sapiens) (UniProt Q00526); test: CDK3/cyclinE(h) Kinase panel; details: Compound concentration 1.0 uM, tested as the 2H-labelled form
[47] = biological target: Ribosomal protein S6 kinase alpha-5 (Homo sapiens) (UniProt O75582); test: MSK1(h) Kinase panel; details: Compound concentration 1.0 uM, tested as the 2H-labelled form
[48] = biological target: D(2) dopamine receptor (Homo sapiens) (UniProt P14416); details: Compound concentration 10.0 uM, tested as the 2H-labelled form
[49] = biological target: Macrophage colony-stimulating factor 1 receptor (Homo sapiens, UniProt P07333); test: Fms(h) Kinase panel; details: Compound concentration 1.0 uM, tested as the 2H-labelled form
[50] = biological target: Ribosomal protein S6 kinase alpha-2 (Homo sapiens) (UniProt Q15349); test: Rsk3(h) Kinase panel; details: Compound concentration 1.0 uM, tested as the 2H-labelled form
[51] = biological target: Serine/threonine-protein kinase SIK3 (Homo sapiens) (UniProt Q9Y2K2); test: SIK3(h) Kinase panel; details: Compound concentration 1.0 uM, tested as the 2H-labelled form
Sequence of Serine/threonine-protein kinase SIK3 (Homo sapiens) (Q9Y2K2 whole entry, looked up): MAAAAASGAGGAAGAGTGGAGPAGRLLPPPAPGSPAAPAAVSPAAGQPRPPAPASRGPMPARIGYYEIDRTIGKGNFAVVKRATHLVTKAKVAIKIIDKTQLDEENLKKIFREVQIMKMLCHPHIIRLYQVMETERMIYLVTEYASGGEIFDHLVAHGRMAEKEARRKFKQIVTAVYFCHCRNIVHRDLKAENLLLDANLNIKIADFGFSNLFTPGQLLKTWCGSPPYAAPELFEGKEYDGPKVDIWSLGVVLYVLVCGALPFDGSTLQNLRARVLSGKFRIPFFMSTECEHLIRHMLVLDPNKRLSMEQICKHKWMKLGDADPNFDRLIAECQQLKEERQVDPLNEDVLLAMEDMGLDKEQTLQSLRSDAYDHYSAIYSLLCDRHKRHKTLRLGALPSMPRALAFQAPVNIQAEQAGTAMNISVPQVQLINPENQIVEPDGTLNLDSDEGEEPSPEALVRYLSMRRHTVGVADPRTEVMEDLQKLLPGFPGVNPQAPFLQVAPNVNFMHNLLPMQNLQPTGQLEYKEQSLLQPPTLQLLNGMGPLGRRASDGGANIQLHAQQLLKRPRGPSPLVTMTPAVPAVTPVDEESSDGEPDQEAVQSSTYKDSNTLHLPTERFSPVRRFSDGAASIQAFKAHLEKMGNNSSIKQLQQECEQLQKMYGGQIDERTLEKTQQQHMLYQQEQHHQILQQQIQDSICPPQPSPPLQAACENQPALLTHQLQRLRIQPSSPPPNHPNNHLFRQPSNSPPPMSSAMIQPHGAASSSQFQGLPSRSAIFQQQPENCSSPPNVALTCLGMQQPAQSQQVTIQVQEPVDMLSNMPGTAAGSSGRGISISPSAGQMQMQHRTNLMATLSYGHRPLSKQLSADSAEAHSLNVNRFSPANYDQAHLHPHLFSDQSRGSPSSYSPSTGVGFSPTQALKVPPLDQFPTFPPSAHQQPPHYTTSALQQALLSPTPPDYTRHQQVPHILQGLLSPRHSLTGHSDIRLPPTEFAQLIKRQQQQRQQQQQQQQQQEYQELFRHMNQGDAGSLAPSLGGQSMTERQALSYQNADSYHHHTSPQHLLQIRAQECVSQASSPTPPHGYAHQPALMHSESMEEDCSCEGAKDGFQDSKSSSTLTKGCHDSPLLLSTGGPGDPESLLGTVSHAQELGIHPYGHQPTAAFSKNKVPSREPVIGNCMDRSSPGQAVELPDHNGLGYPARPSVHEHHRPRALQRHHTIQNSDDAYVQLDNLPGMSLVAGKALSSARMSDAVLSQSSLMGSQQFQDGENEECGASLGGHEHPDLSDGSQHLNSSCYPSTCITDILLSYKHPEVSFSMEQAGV

Sequence of Mitogen-activated protein kinase kinase kinase 9 (Homo sapiens) (P80192 whole entry, looked up): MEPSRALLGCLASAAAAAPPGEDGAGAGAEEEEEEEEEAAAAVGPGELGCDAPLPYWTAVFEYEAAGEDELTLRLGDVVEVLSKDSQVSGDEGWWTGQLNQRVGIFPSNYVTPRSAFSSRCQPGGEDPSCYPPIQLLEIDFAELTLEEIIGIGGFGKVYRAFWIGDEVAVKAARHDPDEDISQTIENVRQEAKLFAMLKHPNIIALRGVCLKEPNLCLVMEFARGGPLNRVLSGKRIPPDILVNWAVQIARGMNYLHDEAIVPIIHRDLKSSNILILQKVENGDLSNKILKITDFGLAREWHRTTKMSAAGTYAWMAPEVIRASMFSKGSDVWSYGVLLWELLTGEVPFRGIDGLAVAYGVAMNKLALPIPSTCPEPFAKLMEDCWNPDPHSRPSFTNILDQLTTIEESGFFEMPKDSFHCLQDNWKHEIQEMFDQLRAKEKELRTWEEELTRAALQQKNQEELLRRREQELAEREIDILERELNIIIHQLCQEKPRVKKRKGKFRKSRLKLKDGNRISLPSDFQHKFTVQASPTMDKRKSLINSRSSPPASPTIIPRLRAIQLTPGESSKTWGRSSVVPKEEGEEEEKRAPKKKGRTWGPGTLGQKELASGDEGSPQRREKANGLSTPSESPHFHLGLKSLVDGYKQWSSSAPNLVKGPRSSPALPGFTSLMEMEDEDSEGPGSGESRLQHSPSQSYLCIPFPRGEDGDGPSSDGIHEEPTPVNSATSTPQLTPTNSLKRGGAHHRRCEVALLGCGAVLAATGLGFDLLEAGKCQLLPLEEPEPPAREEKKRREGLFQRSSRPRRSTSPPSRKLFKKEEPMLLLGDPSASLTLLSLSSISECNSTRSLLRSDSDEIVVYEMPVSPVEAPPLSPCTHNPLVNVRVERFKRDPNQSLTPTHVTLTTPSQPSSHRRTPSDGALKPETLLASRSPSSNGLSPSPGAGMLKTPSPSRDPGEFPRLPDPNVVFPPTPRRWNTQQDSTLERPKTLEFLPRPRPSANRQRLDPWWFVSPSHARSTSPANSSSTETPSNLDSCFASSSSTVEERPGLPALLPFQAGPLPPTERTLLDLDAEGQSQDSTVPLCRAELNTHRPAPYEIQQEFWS
Sequence of Glycogen synthase kinase-3 beta (Homo sapiens) (P49841 whole entry, looked up): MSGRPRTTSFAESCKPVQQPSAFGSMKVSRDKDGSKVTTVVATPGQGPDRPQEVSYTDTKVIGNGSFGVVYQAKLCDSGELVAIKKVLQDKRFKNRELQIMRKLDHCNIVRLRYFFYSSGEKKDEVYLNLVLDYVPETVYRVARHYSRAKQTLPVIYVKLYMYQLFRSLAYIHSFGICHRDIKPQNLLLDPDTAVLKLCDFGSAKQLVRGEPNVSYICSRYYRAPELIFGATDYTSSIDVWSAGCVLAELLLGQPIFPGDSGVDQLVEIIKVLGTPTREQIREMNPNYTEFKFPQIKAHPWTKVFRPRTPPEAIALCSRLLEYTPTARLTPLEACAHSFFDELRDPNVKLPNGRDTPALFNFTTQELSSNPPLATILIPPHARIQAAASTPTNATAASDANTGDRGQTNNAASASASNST
Sequence of Casein kinase I isoform gamma-3 (Homo sapiens) (Q9Y6M4 whole entry, looked up, canonical isoform): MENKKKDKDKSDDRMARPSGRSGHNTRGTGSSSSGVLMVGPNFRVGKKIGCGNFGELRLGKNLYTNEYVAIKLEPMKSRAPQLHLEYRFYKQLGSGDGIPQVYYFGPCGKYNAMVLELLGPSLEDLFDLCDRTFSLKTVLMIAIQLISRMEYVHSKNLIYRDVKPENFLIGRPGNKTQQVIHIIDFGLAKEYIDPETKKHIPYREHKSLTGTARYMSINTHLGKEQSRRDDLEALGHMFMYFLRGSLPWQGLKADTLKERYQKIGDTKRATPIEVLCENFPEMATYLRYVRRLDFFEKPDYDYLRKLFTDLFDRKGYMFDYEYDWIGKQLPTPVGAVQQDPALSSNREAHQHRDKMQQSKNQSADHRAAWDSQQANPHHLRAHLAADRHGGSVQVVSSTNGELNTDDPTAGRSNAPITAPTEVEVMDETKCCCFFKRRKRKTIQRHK
Sequence of Cytoplasmic tyrosine-protein kinase BMX (Homo sapiens) (P51813 whole entry): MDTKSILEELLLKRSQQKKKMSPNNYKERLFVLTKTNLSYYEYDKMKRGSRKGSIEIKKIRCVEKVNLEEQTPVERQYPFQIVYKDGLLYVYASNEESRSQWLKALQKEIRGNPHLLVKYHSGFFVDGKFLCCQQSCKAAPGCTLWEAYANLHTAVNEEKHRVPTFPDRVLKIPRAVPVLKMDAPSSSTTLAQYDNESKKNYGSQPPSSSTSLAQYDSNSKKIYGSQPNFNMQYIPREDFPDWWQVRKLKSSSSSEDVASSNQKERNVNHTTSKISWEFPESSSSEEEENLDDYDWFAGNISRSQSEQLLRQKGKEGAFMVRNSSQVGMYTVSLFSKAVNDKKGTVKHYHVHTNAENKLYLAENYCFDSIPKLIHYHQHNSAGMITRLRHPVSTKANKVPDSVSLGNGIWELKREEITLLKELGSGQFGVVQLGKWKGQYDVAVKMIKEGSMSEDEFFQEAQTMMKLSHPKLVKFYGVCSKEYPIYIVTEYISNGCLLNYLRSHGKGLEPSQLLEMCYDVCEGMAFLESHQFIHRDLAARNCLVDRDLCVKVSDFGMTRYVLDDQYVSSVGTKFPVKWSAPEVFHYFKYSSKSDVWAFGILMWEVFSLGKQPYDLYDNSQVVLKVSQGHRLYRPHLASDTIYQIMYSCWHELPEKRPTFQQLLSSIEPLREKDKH
Sequence of Serine/threonine-protein kinase SIK1 (Homo sapiens) (P57059 whole entry): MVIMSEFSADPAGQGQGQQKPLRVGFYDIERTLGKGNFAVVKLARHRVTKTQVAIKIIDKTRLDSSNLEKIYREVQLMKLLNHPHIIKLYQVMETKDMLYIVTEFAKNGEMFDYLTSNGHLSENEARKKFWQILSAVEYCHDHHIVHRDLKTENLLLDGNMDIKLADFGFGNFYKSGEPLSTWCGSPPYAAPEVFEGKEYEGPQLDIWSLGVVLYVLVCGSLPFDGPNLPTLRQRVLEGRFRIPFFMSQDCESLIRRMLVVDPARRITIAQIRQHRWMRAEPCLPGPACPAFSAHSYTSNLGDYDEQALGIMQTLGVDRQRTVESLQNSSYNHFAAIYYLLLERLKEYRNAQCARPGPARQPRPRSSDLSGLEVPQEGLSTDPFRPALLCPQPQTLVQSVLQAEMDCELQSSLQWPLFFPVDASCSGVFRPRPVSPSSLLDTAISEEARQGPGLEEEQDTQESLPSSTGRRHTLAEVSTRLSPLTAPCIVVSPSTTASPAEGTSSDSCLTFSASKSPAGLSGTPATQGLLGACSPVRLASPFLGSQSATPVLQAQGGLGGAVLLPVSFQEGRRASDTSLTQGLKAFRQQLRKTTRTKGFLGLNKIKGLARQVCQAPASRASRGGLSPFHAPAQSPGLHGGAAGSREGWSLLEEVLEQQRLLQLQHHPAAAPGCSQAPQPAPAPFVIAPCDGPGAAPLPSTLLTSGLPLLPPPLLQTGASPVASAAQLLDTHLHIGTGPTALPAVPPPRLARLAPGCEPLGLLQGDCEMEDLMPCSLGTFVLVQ
Sequence of Cyclin-dependent kinase 5 (Homo sapiens) (Q00535 whole entry, looked up): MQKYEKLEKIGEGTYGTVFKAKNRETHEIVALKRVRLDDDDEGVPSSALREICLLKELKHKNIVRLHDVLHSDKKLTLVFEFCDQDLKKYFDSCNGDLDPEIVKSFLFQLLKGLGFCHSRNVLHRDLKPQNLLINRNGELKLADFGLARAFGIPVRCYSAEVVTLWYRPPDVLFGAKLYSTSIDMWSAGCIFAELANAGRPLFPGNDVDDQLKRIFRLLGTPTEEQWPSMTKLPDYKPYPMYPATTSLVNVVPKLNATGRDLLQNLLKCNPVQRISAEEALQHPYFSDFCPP

## CC1(C)Cn2nc(-c3ccc(F)cn3)c(-c3ccnc4[nH]ncc34)c2CO1
[1]
  inhibition: 28%
[2]
  inhibition: -3.57%
[3]
  inhibition: 4%
[4]
  inhibition: 31%
[5]
  inhibition: -1%
[6]
  inhibition: 0%
[7]
  inhibition: 14%
[8]
  inhibition: -1%
[9]
  inhibition: -7%
[10]
  inhibition: 14%
[11]
  inhibition: -4%
[12]
  inhibition: 96%
[13]
  inhibition: 5%
[14]
  inhibition: -9%
[15]
  inhibition: -5%
[16]
  inhibition: -1%
[17]
  inhibition: -6%
[18]
  inhibition: 10%
[19]
  inhibition: -1.55%
[20]
  inhibition: 19%
[21]
  inhibition: 4%
[22]
  inhibition: 15%
[23]
  inhibition: 0%
[24]
  inhibition: -3%
[25]
  inhibition: -7%
[26]
  inhibition: -7%
[27]
  inhibition: -0.66%
[28]
  inhibition: 43.8%
[29]
  inhibition: 14%
[30]
  inhibition: 6%
[31]
  inhibition: 12%
[32]
  inhibition: 0%
[33]
  inhibition: 50.9%
[34]
  inhibition: 9%
[35]
  inhibition: 12%
[36]
  inhibition: -1.12%
[37]
  inhibition: 15.4%
[38]
  inhibition: 9%
[39]
  inhibition: -1.8%
[40]
  inhibition: -2%
[41]
  inhibition: 9%
[42]
  inhibition: 9%
[43]
  inhibition: 4%
[44]
  inhibition: 10%
[45]
  inhibition: -8%
[46]
  inhibition: -8%
[47]
  inhibition: 8%
[48]
  inhibition: 4.12%
[49]
  inhibition: 0%
[50]
  inhibition: -7%
[51]
  inhibition: -1%

— ChEMBL document CHEMBL5058645, “Data for DCP probe JNJ-6204” (2022)
